Results taken from US8252973B2, “Metabolic engineering of lipid metabolism by improving fatty acid binding and transport” (The Salk Institute for Biological Studies, priority 2006, dated 2012).

What was measured:
Assay type in all cases: binding
At287 (At1g53520) = biological target: T1, At287 (At1g53520) (Arabidopsis thaliana, UniProt Q9C8L2); assay: LC-MS analysis of fatty acids bound to purified At287 protein; settings: protein over-expressed in and purified from E. coli, ethanol extract, negative-ion ESI
T1 construct: At279 and At287 proteins were purified to homogeneity as described above; His tag (pHIS8 vector) (N, cleaved yes); made in house; host or cells: E. coli BL21 (DE3)
T1 sequence (Q9C8L2 73-287): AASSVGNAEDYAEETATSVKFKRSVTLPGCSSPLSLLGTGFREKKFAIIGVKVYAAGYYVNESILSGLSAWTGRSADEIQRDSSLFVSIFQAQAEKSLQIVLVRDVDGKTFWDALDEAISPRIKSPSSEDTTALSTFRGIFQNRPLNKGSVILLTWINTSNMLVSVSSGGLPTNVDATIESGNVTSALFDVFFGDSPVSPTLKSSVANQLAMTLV
Experimental: (§1) Cloning, expression and purification of At3g63170 (At279) and At1g53520 (At287): Arabidopsis thaliana At3g63170 (At279) and At1g53520 (At287) genes were subcloned into the pHIS8 Escherichia coli expression vector derived from pET28a (+). For crystallization purpose, constructs of At279 and At287 lacking the transit peptide sequence found at the N-terminal region of the protein (˜50 amino acids) were also created. Transformed E. coli. BL21 (DE3) cells were incubated with shaking at 37° C. in Terrific broth containing 50 μg/ml kanamycin until A([…])=1.0. Protein expression was induced with 0.5 mM isopropyl 1-thio-β-galactopyranoside, and the cultures were incubated with shaking at 22° C. for an additional 6 h. Cells were harvested by centrifugation at 9,000×g and cell pellets re-suspended in lysis buffer (500 mM NaCl, 50 mM Tris-HCl (pH 8.0), 20 mM imidazole, 10% (v/v) glycerol 1% (v/v) Tween 20, 10 mM […]) supplemented with 1 mg/ml lysozyme. Following sonication and centrifugation of the lysed cell debris at 100,000×g, the supernatant was passed over a Ni2+-NTA column (Qiagen, Valencia, Calif.) equilibrated in lysis buffer, washed with 10 bed volumes of wash buffer (500 mM NaCl, 50 mM Tris-HCl (pH 8.0), 20 mM imidazole, 10 mM β-mercaptoethanol), and the His-tagged protein eluted with 10 bed volumes of elution buffer (500 mM NaCl, 50 mM Tris-HCl (pH 8.0), 250 mM imidazole, 10 mM β-mercaptoethanol). The N-terminal His tag was cleaved by thrombin digestion during a 24-h dialysis against digestion buffer (500 mM NaCl, 50 mM Tris (pH 8.0), 10 mM β-mercaptoethanol) at 4° C. Cleaved protein was isolated by running the dialyzed sample over another Ni2+-NTA column equilibrated in digestion buffer to remove the His tag and uncleaved protein, followed by a benzamidine-Sepharose column to remove thrombin. A Superdex S75 gel filtration column (Amersham Biosciences) equilibrated in gel filtration buffer (500 mM NaCl, 25 mM HEPES (pH 7.5), 2 mM dithiothreitol (DTT) was utilized to isolate homogeneous At279 and A287. Peak fractions were collected and dialyzed against crystallization storage buffer (100 mM NaCl, 25 mM HEPES (pH 7.5), 2 mM DTT). The resulting samples were subjected to SDS-PAGE and judged to be >95% pure based upon Coomassie staining. At279 and At287 were subsequently concentrated to 10-15 mg/ml and stored at −80° C.
(§2) At279 and At287 proteins were purified to homogeneity as described above. Ice-cold HPLC grade ethanol (600 μl) was added to the proteins (150 μl protein sample at 10 mg/ml previously dialyzed against 20 mM ammonium bicarbonate). The samples were vortexed and incubated at −20° C. for 3 days. For LC-MS analysis, the samples were centrifuged, and the supernatant containing the FAs was removed and placed in a new glass vial. The solvent was evaporated at 25° C., and the remaining residue resuspended in 200 μl propanol. The extracts were analyzed by liquid chromatography (LC) using an Agilent 1100 HPLC employing a Gemini reversed-phase C18 column (4.6×150 mm, 5 μ) running at a flow rate of 1 ml/min, and coupled to an electrospray ionization (ESI) XCT ion trap mass spectrometer (Agilent) operated in the negative-ion mode employing a continual introduction of a 20 mM ammonium acetate solution flowing at 100 μl/min. A linear gradient of acetonitrile (30-100% v/v) in 25 mM ammonium bicarbonate, pH 8, was used. The negative ion-ESI mass spectra of FA standards were as follows: Laurie acid (C12:0) (m/z)=198.7 ([M-H]-), Myristic acid (C14:0) (m/z)=226.9 ([M-H]-), Palmitic acid (C16:0)/m/z)=254.9 ([M-H]-) and Stearic acid (C18:0) (m/z)=282.9 ([M-H]-).

At279 (At3g63170) [1] = biological target: T2, At279 (At3g63170) (Arabidopsis thaliana, UniProt Q9M1X2); assay: LC-MS analysis of fatty acids bound to purified At279 protein; settings: protein over-expressed in and purified from E. coli, ethanol extract, negative-ion ESI
T2 construct: At279 and At287 proteins were purified to homogeneity as described above; His tag (pHIS8 vector) (N, cleaved yes); made in house; host or cells: E. coli BL21 (DE3)
T2 sequence (Q9M1X2 1-279): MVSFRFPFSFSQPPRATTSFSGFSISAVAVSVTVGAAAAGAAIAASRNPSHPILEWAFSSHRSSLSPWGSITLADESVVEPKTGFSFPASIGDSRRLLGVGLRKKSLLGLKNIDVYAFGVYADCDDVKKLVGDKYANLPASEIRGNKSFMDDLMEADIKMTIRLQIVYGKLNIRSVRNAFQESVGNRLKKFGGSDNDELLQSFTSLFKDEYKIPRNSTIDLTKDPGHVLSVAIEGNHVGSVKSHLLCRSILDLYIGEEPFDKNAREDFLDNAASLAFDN
Experimental: as §1, §2

At279 (At3g63170) [2] = biological target: T3, At279 (At3g63170) (Arabidopsis thaliana, UniProt Q9M1X2); assay: X-ray crystal structure of At279 with bound small molecule; settings: ligand likely derived from E. coli, carboxylic acid sequestered by Arg 103 and Tyr 116
T3 construct: Crystals of the heterologously expressed At279 C-terminal construct (residues 77 to 279) were obtained by vapor diffusion; His tag (pHIS8 vector) (N, cleaved yes); made in house; host or cells: E. coli BL21 (DE3)
T3 sequence (Q9M1X2 77-279): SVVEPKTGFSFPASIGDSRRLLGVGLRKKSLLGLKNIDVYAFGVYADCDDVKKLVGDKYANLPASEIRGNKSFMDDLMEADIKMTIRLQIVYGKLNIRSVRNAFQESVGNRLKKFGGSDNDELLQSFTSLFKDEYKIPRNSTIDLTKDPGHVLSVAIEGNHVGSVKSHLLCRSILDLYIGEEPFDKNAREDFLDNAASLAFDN
Experimental: Crystals of the heterologously expressed At279 C-terminal construct (residues 77 to 279) were obtained by vapor diffusion in 2 μl hanging drops incubated at 4° C. and consisting of a 1:1 mixture of protein and crystallization buffer. The crystallization buffer contained 19% (w/v) PEG 3350, 0.3 M KCl, 2 mM DTT and 100 mM TAPS buffer at pH 8.5. Prior to freezing in liquid nitrogen, native crystals were passed through a cryogenic buffer identical to the crystallization buffer except for the use of 21% (w/v) PEG 3350 and the inclusion of 20% (v/v) ethylene glycol. For heavy atom derivatization, native At279 crystals were soaked overnight in crystallization buffer differing from the crystallization solution due to an increased PEG 3350 concentration (21% (w/v)) and the inclusion of 1 mM K2PtCl4 prior to cryogenic freezing as before. A multi-wavelength anomalous dispersion (MAD) data set was collected at the Pt edge on a K2PtCl4 derivative crystal at the Stanford Synchrotron Radiation Laboratory (SSRL) on beam line BL1-5. Data were processed with HKL2000 and reduced to a unique set of indexed intensities to a resolution of 2.6 Å. A single-wavelength native data set was collected at SSRL and processed with HXL2000 to a resolution of 1.9 Å. At279 crystals belong to the P2(1)2(1)2(1) space group, with average unit cell dimensions of a=56.44 Å, b=56.96 Å, c=140.37 Å, α=β=γ=90°. […]

Compound | fatty acid bound to purified At287 (presence in protein extract by LC-MS) (At287 (At1g53520)) | fatty acid bound to purified At287 (presence in protein extract by LC-MS) (At287 (At1g53520); listed as C12:0) | fatty acid bound to purified At279 (presence in protein extract by LC-MS) (At279 (At3g63170) [1]) | fatty acid bound to purified At279 (presence in protein extract by LC-MS) (At279 (At3g63170) [1]; listed as C12:0) | small molecule bound in At279 crystal structure (At279 (At3g63170) [2]) | small molecule bound in At279 crystal structure (At279 (At3g63170) [2]; listed as lauric acid) | fatty acid bound to purified At287 (presence in protein extract by LC-MS) (At287 (At1g53520); listed as C16:0) | fatty acid bound to purified At279 (presence in protein extract by LC-MS) (At279 (At3g63170) [1]; listed as C16:0) | fatty acid bound to purified At287 (presence in protein extract by LC-MS) (At287 (At1g53520); listed as C14:0) | fatty acid bound to purified At279 (presence in protein extract by LC-MS) (At279 (At3g63170) [1]; listed as C14:0) | fatty acid bound to purified At287 (presence in protein extract by LC-MS) (At287 (At1g53520); listed as C18:0) | fatty acid bound to purified At279 (presence in protein extract by LC-MS) (At279 (At3g63170) [1]; listed as C18:0)
CCCCCCCCCCCC(=O)O [Laurie acid, lauric acid] | bind | clearly showed the presence | bind | clearly showed the presence | sequestered in a well-organized binding pocket | bound in a cavity partially overlapping with the originally identified CHI active site | – | – | – | – | – | –
CCCCCCCCCCCCCCCC(=O)O [Palmitic acid] | bind | – | bind | – | – | – | clearly showed the presence | clearly showed the presence | – | – | – | –
CCCCCCCCCCCCCC(=O)O [Myristic acid] | bind | – | bind | – | – | – | – | – | clearly showed the presence | clearly showed the presence | – | –
CCCCCCCCCCCCCCCCCC(=O)O [Stearic acid] | bind | – | bind | – | – | – | – | – | – | – | clearly showed the presence | clearly showed the presence
